{
  "source": "patent US11903959B2",
  "about": "(EMORY UNIVERSITY, priority 2017, dated 2024)",
  "key": {"Lassa fever virus": {"test_system": "Lassa fever virus", "experiment": "organism not typed", "assay_type": "cell-based", "conditions": "Vero"}, "VEEV": {"test_system": "VEEV", "experiment": "microbe, parasite or virus in culture", "assay_type": "cell-based", "conditions": "Venezuelan equine encephalitis virus"}, "WEEV": {"test_system": "WEEV", "experiment": "microbe, parasite or virus in culture", "assay_type": "cell-based", "conditions": "Western equine encephalitis virus"}, "RVFV": {"test_system": "RVFV", "experiment": "microbe, parasite or virus in culture", "assay_type": "cell-based", "conditions": "Rift Valley fever virus, Vero"}, "Heartland virus": {"test_system": "Heartland virus", "experiment": "microbe, parasite or virus in culture", "assay_type": "cell-based", "conditions": "Vero"}, "MERS": {"test_system": "MERS", "experiment": "microbe, parasite or virus in culture", "assay_type": "cell-based, MERS coronavirus", "conditions": "Middle East respiratory syndrome-related coronavirus, Vero C1008"}, "Flu A H3N2": {"test_system": "Flu A H3N2", "experiment": "microbe, parasite or virus in culture", "assay_type": "cell-based, influenza A virus"}, "NV": {"test_system": "NV", "experiment": "microbe, parasite or virus in culture", "assay_type": "cell-based", "conditions": "Norovirus, HG23"}, "Poliovirus -1": {"test_system": "Poliovirus -1", "experiment": "microbe, parasite or virus in culture", "assay_type": "cell-based", "conditions": "Enterovirus C, Vero 76, Poliovirus -1, Vero76 cells"}, "[1]": {"experiment": "Cytotoxicity (CC50) run with antiviral assays, BHK cells", "assay_type": "cell-based", "conditions": "hamster, Flaviviridae table", "method": "Four-concentration CPE inhibition assays are performed. Confluent or near-confluent cell culture monolayers in 96-well disposable microplates are prepared. Cells are maintained in MEM or DMEM supplemented with FBS as required for each cell line. For antiviral assays the same medium is used but with FBS reduced to 2% or less and supplemented with 50 μg/mL gentamicin. The test compound is prepared at four log10 final concentrations, usually 0.1, 1.0, 10, and 100 μg/mL or μM. The virus control and cell control wells are on every microplate. In parallel, a known active drug is tested as a positive control drug using the same method as is applied for test compounds. The positive control is tested with each test run. The assay is set up by first removing growth media from the 96-well plates of cells. Then the test compound is applied in 0.1 mL volume to wells at 2× concentration. […] The dye content in each well is quantified using a 96-well spectrophotometer at 540 nm wavelength. […]\nThis assay involves similar methodology to what is described in the previous paragraphs using 96-well microplates of cells. […] The incorporated dye content is quantified as described above. […] Compounds observed to be active above are further evaluated by VYR assay. […] Wells are scored for presence or absence of virus after distinct CPE (measured by neutral red uptake) is observed. […]"}, "[2]": {"conditions": "cynomolgus monkey, in vivo, po; for AUC0->24 h / CL / Cmax / t1/2 / tmax: 0.4 mmol/kg"}, "[3]": {"conditions": "female, in vivo, po"}, "in vivo [4]": {"experiment": "in vivo", "conditions": "ICR (CD-1), mouse, 180 mg/kg"}, "in vivo [5]": {"experiment": "in vivo", "conditions": "dog, 140 mg/kg"}, "[6]": {"experiment": "Cytotoxicity (CC50) run with antiviral assays, MA-104 cells", "conditions": "African green monkey, CC50, MA-104 cells, Parainfluenza and RSV table"}, "[7]": {"experiment": "Cytotoxicity (CC50) run with antiviral assays, HeLa-Ohio cells", "conditions": "human"}, "[8]": {"experiment": "Plasma pharmacokinetics in mice after a single dose of EIDD-2800", "conditions": "ICR (CD-1), mouse, oral, 180 mg/kg"}},
  "note": "Like-named read-outs stand apart in the source and are kept apart here.",
  "data": [
    {"molecule": "O=c1nc(NO)ccn1C1OC(CO)C(O)C1O", "note": "(stereo not drawn) [EIDD-1931, 1-(3,4-dihydroxy-5-(hydroxymethyl)tetrahydrofuran-2-yl)-4-(hydroxyamino)pyrimidin-2-one]", "values": [
      {"measurement": "EC50", "setting": "Lassa fever virus", "value": 4040, "unit": "nM"},
      {"measurement": "EC90", "setting": "VEEV; Vero 76", "value": 800, "unit": "nM"},
      {"measurement": "EC50", "setting": "VEEV; Vero 76, VEEV, Vero76 cells", "value": 1280, "unit": "nM"},
      {"measurement": "EC50", "setting": "VEEV; Vero, VEE virus, Vero cell cytopathic effect (CPE) model", "value": 1000, "unit": "nM"},
      {"measurement": "EC90", "setting": "WEEV; Vero 76", "value": "< 1280", "unit": "nM"},
      {"measurement": "EC50", "setting": "WEEV; Vero 76, WEEV, Vero76 cells", "value": 1280, "unit": "nM"},
      {"measurement": "EC50", "setting": "WEEV; Vero, WEE virus, Vero cell cytopathic effect (CPE) model", "value": 1360, "unit": "nM"},
      {"measurement": "EC90", "setting": "RVFV", "value": 1000, "unit": "nM"},
      {"measurement": "EC50", "setting": "RVFV; RVFV, Vero cells", "value": 1680, "unit": "nM"},
      {"measurement": "EC90", "setting": "Heartland virus", "value": 7840, "unit": "nM"},
      {"measurement": "EC50", "setting": "MERS", "value": "< 800", "unit": "nM"},
      {"measurement": "EC90", "setting": "MERS", "value": "< 800", "unit": "nM"},
      {"measurement": "EC50", "setting": "Flu A H3N2", "value": 880, "unit": "nM"},
      {"measurement": "EC50", "setting": "Flu A H3N2; Influenza A virus, H3N2, MDCK", "value": 960, "unit": "nM"},
      {"measurement": "EC50", "setting": "NV", "value": "> 100000", "unit": "nM"},
      {"measurement": "EC90", "setting": "NV", "value": "> 100000", "unit": "nM"},
      {"measurement": "EC50", "setting": "Poliovirus -1", "value": 12800, "unit": "nM"},
      {"measurement": "CC50", "setting": "[1]", "value": 30000, "unit": "nM"},
      {"measurement": "bioavailability", "setting": "[2]", "value": "low bioavailability"},
      {"measurement": "F", "setting": "[2]; female", "value": "~3", "unit": "%"},
      {"measurement": "AUC0->24 h", "setting": "[2]; female", "value": "7.21 ± 4.21", "unit": "µM·h"},
      {"measurement": "CL", "setting": "[2]; female", "value": "1100 ± 527", "unit": "mL/min/kg"},
      {"measurement": "Cmax", "setting": "[2]; female", "value": "3.31 ± 1.99", "unit": "µM"},
      {"measurement": "t1/2", "setting": "[2]; female", "value": "0.78 ± 0.2", "unit": "h"},
      {"measurement": "tmax", "setting": "[2]; female", "value": "0.87 ± 0.75", "unit": "h"},
      {"measurement": "AUC0->24 h", "setting": "[2]; male", "value": "5.75 ± 1.99", "unit": "µM·h"},
      {"measurement": "CL", "setting": "[2]; male", "value": "1170 ± 312", "unit": "mL/min/kg"},
      {"measurement": "Cmax", "setting": "[2]; male", "value": "3.31 ± 1.82", "unit": "µM"},
      {"measurement": "t1/2", "setting": "[2]; male", "value": "1.2 ± 1.2", "unit": "h"},
      {"measurement": "tmax", "setting": "[2]; male", "value": "0.75 ± 0.28", "unit": "h"},
      {"measurement": "t1/2", "setting": "[3]; 4 mg/kg", "value": "8.2 ± 1.7", "unit": "h"},
      {"measurement": "t1/2", "setting": "[3]; 20 mg/kg", "value": "4.7 ± 1.3", "unit": "h"},
      {"measurement": "t1/2", "setting": "[3]; outbred, 128 mg/kg", "value": "5.1 ± 0.8", "unit": "h"},
      {"measurement": "t1/2", "setting": "[3]; outbred, 512 mg/kg", "value": "4.2 ± 0.6", "unit": "h"},
      {"measurement": "half-life", "setting": "in vivo [4]", "value": 1.86, "unit": "h"},
      {"measurement": "Cmax", "setting": "in vivo [5]", "value": "113 ± 21.1", "unit": "µM"},
      {"measurement": "half-life", "setting": "in vivo [5]", "value": "4.8 ± 1", "unit": "h"},
      {"measurement": "CC50", "setting": "[6]", "value": 272000, "unit": "nM"},
      {"measurement": "CC50", "setting": "[7]", "value": "> 40000", "unit": "nM"},
      {"measurement": "AUC(0-inf)", "setting": "[8]", "value": 42.5, "unit": "µM·h"},
      {"measurement": "Cmax", "setting": "[8]", "value": 11.4, "unit": "µM"},
      {"measurement": "tmax", "setting": "[8]", "value": 0.5, "unit": "h"}
    ]}
  ]
}
